For six molecules, IC50 results are on record in patent US10570184B2, “GLP-1/glucagon receptor co-agonists for medical use” (Novo Nordisk A/S, priority 2014, dated 2020).

This assay concerns the target T1, human GLP-1 receptor (Homo sapiens, UniProt P43220).
T1 construct: expressed in transfected cells; host or cells: membranes of BHK cells (parent BHKTS13), clone FCW467-12A
Nature of the assay: Assay (II)(a) GLP-1 receptor binding, 125I-GLP-1 displacement SPA on BHK membranes. As to conditions: without presence of serum albumin; read-out: GLP-1R IC50 (nM) [Assay (II)(a)]. The gist of the method:
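Membranes from BHK cells (clone FCW467-12A) stably expressing human GLP-1R were incubated with serially diluted compounds (8×10EE-13 to 8×10EE-7 M before addition) and [125I]-GLP-1-(7-36)NH2 with WGA SPA beads, 2 h at 30° C, pH 7.4. IC50 taken from displacement by non-linear regression. Run at ≤0.001% or 2.0% final serum albumin.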

Starred links: 1 amine or outer side, 2 acyl side, 3 side chain; linkers in the order of their positions; H or OH if unused. Non-standard residues stand in square brackets, D forms with d. Residues, ends and D or L forms follow the SMILES beside them. Groups on a side chain read outwards from the residue. *: point of attachment. C18 diacid = O=C(O)CCCCCCCCCCCCCCCCC(=O)*; γGlu = O=C(O)[C@H](CCC(=O)[*:2])N[*:1]; Ac4c = NC1(C(=O)O)CCC1; AEEA = NCCOCCOCC(=O)O; Aib = CC(C)(N)C(=O)O

For orientation: IC50 means the concentration needed to halve the response being measured.

T1 sequence (P43220 24-463): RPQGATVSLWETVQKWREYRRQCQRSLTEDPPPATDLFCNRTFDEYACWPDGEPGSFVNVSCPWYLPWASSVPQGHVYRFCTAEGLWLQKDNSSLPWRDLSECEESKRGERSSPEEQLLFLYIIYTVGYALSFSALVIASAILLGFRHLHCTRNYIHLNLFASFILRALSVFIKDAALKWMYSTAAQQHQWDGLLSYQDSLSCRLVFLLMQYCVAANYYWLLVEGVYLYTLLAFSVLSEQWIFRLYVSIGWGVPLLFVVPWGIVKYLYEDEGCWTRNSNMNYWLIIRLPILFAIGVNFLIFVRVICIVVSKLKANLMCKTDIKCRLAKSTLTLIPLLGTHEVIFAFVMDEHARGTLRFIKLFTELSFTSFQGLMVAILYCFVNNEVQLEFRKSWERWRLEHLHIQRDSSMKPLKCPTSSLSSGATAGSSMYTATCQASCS

Take `CC[C@H](C)[C@H](NC(=O)[C@H](CC(C)C)NC(=O)[C@H](Cc1c[nH]c2ccccc12)NC(=O)[C@H](CCCCNC(=O)COCCOCCNC(=O)COCCOCCNC(=O)CC[C@H](NC(=O)CC[C@H](NC(=O)CC[C@H](NC(=O)CCCCCCCCCCCCCCCCC(=O)O)C(=O)O)C(=O)O)C(=O)O)NC(=O)[C@@H](NC(=O)[C@H](Cc1ccccc1)NC(=O)[C@H](CCC(=O)O)NC(=O)[C@H](CCCNC(=N)N)NC(=O)[C@H](C)NC(=O)[C@H](CCCNC(=N)N)NC(=O)[C@H](CCCNC(=N)N)NC(=O)[C@H](C)NC(=O)[C@H](CC(=O)O)NC(=O)[C@H](CC(C)C)NC(=O)[C@H](Cc1ccc(O)cc1)NC(=O)[C@H](CCCCN)NC(=O)[C@H](CO)NC(=O)[C@H](Cc1ccc(O)cc1)NC(=O)[C@H](CC(=O)O)NC(=O)[C@H](CO)NC(=O)[C@@H](NC(=O)[C@H](Cc1ccccc1)NC(=O)[C@@H](NC(=O)CNC(=O)[C@H](CCC(N)=O)NC(=O)C(C)(C)NC(=O)[C@@H](N)Cc1c[nH]cn1)[C@@H](C)O)[C@@H](C)O)C(C)C)C(=O)N[C@@H](CO)C(=O)N[C@H](C(N)=O)[C@@H](C)O` [Chem. 4, N^ε24-[2-[2-[2-[[2-[2-[2-[[(4S)-4-carboxy-4-[[(4S)-4-carboxy-4-[[(4S)-4-carboxy-4-(17-carboxyheptadecanoylamino)butanoyl]amino]butanoyl]amino]butanoyl]amino]ethoxy]ethoxy]acetyl]amino]ethoxy]ethoxy]acetyl]-[Aib2,Ala16,Arg20,Glu21,Lys24,Ile27,Ser28]-Glucagon amide] (H-H[Aib]QGTFTSDYSKYLDARRAREFVK([AEEA-AEEA-γGlu-γGlu-γGlu-C18 diacid])WLIST-NH2; N-terminus assumed): the IC50 worked out at 0.1 nM.

As for `CC[C@H](C)[C@H](NC(=O)[C@H](CC(C)C)NC(=O)[C@H](Cc1c[nH]c2ccccc12)NC(=O)[C@H](CCC(N)=O)NC(=O)[C@@H](NC(=O)[C@H](Cc1ccccc1)NC(=O)[C@H](CC(=O)O)NC(=O)[C@H](CCC(N)=O)NC(=O)[C@H](C)NC(=O)[C@H](CCCNC(=N)N)NC(=O)[C@H](CCCNC(=N)N)NC(=O)[C@H](C)NC(=O)[C@H](CC(=O)O)NC(=O)[C@H](CC(C)C)NC(=O)[C@H](Cc1ccc(O)cc1)NC(=O)[C@H](CCCCN)NC(=O)[C@H](CO)NC(=O)[C@H](CC(C)C)NC(=O)[C@H](CC(=O)O)NC(=O)[C@H](CO)NC(=O)[C@@H](NC(=O)[C@H](Cc1ccccc1)NC(=O)[C@@H](NC(=O)CNC(=O)[C@H](CCC(N)=O)NC(=O)C(C)(C)NC(=O)[C@@H](N)Cc1c[nH]cn1)[C@@H](C)O)[C@@H](C)O)C(C)C)C(=O)N[C@@H](CCCCNC(=O)COCCOCCNC(=O)COCCOCCNC(=O)CC[C@H](NC(=O)CC[C@H](NC(=O)CC[C@H](NC(=O)CCCCCCCCCCCCCCCCC(=O)O)C(=O)O)C(=O)O)C(=O)O)C(=O)N[C@H](C(N)=O)[C@@H](C)O` [Chem. 7, N^ε28-[2-[2-[2-[[2-[2-[2-[[(4S)-4-carboxy-4-[[(4S)-4-carboxy-4-[[(4S)-4-carboxy-4-(17-carboxyheptadecanoylamino)butanoyl]amino]butanoyl]amino]butanoyl]amino]ethoxy]ethoxy]acetyl]amino]ethoxy]ethoxy]acetyl]-[Aib2,Leu10,Ala16,Ile27,Lys28]-Glucagon amide] (H-H[Aib]QGTFTSDLSKYLDARRAQDFVQWLIK([AEEA-AEEA-γGlu-γGlu-γGlu-C18 diacid])T-NH2; N-terminus assumed), the half-maximal inhibitory concentration (IC50) stood at 0.3 nM.

In the case of `CC[C@H](C)[C@H](NC(=O)[C@H](CC(C)C)NC(=O)[C@H](Cc1c[nH]c2ccccc12)NC(=O)[C@H](CCC(N)=O)NC(=O)[C@@H](NC(=O)[C@H](Cc1ccccc1)NC(=O)[C@H](CCC(=O)O)NC(=O)[C@H](CCCNC(=N)N)NC(=O)[C@H](C)NC(=O)[C@H](CCCNC(=N)N)NC(=O)[C@H](CCCNC(=N)N)NC(=O)[C@H](CO)NC(=O)[C@H](CCC(=O)O)NC(=O)[C@H](CC(C)C)NC(=O)[C@H](Cc1ccc(O)cc1)NC(=O)[C@H](CCCNC(=N)N)NC(=O)[C@H](CO)NC(=O)[C@H](CC(C)C)NC(=O)[C@H](CC(=O)O)NC(=O)[C@H](CO)NC(=O)[C@@H](NC(=O)[C@H](Cc1ccccc1)NC(=O)[C@@H](NC(=O)CNC(=O)[C@H](CCC(N)=O)NC(=O)C1(NC(=O)[C@@H](N)Cc2c[nH]cn2)CCC1)[C@@H](C)O)[C@@H](C)O)C(C)C)C(=O)N[C@@H](CCCCNC(=O)CC[C@H](NC(=O)CC[C@H](NC(=O)COCCOCCNC(=O)COCCOCCNC(=O)CC[C@H](NC(=O)CC[C@H](NC(=O)CCCCCCCCCCCCCCCCC(=O)O)C(=O)O)C(=O)O)C(=O)O)C(=O)O)C(=O)N[C@H](C(N)=O)[C@@H](C)O` [Chem. 17, N^ε28-[(4S)-4-carboxy-4-[[(4S)-4-carboxy-4-[[2-[2 [2-[[2-[2-[2-[[(4S)-4-carboxy-4-[[(4S)-4-carboxy-4-(17-carboxyheptadecanoylamino)butanoyl]amino]butanoyl]amino]ethoxy]ethoxy]acetyl]amino]ethoxy]ethoxy]acetyl]amino]butanoyl]amino]butanoyl]-[Acb2,Leu10,Arg12,Glu15,Arg20,Glu21,Ile27,Lys28]-Glucagon amide] (H-H[Ac4c]QGTFTSDLSRYLESRRAREFVQWLIK([γGlu-γGlu-AEEA-AEEA-γGlu-γGlu-C18 diacid])T-NH2), the half-maximal inhibitory concentration (IC50) was 0.1 nM.

For the molecule `CC[C@H](C)[C@H](NC(=O)[C@H](CC(C)C)NC(=O)[C@H](Cc1c[nH]c2ccccc12)NC(=O)[C@H](CCC(N)=O)NC(=O)[C@@H](NC(=O)[C@H](Cc1ccccc1)NC(=O)[C@H](CCC(=O)O)NC(=O)[C@H](CCCNC(=N)N)NC(=O)[C@H](C)NC(=O)[C@H](CCCNC(=N)N)NC(=O)[C@H](CCCNC(=N)N)NC(=O)[C@H](CO)NC(=O)[C@H](CCC(=O)O)NC(=O)[C@H](CC(C)C)NC(=O)[C@H](Cc1ccc(O)cc1)NC(=O)[C@H](CCCCN)NC(=O)[C@H](CO)NC(=O)[C@H](CC(C)C)NC(=O)[C@H](CC(=O)O)NC(=O)[C@H](CO)NC(=O)[C@@H](NC(=O)[C@H](Cc1ccccc1)NC(=O)[C@@H](NC(=O)CNC(=O)[C@H](CCC(N)=O)NC(=O)C1(NC(=O)[C@@H](N)Cc2c[nH]cn2)CCC1)[C@@H](C)O)[C@@H](C)O)C(C)C)C(=O)N[C@@H](CCCCNC(=O)COCCOCCNC(=O)COCCOCCNC(=O)CC[C@H](NC(=O)CC[C@H](NC(=O)CCCCCCCCCCCCCCCCC(=O)O)C(=O)O)C(=O)O)C(=O)N[C@H](C(N)=O)[C@@H](C)O` [Chem. 18, N^ε28-[2-[2-[2-[[2-[2-[2-[[(4S)-4-carboxy-4-[[(4S)-4-carboxy-4-(17-carboxyheptadecanoylamino)butanoyl]amino]butanoyl]amino]ethoxy]ethoxy]acetyl]amino]ethoxy]ethoxy]acetyl]-[Acb2,Leu10,Glu15,Arg20,Glu21,Ile27,Lys28]-Glucagon amide] (H-H[Ac4c]QGTFTSDLSKYLESRRAREFVQWLIK([AEEA-AEEA-γGlu-γGlu-C18 diacid])T-NH2), the IC50 came out at 0.1 nM.

For the molecule `CC[C@H](C)[C@H](NC(=O)[C@H](CC(C)C)NC(=O)[C@H](Cc1c[nH]c2ccccc12)NC(=O)[C@H](CCC(N)=O)NC(=O)[C@@H](NC(=O)[C@H](Cc1ccccc1)NC(=O)[C@H](CC(=O)O)NC(=O)[C@H](CCCNC(=N)N)NC(=O)[C@H](C)NC(=O)[C@H](CCCNC(=N)N)NC(=O)[C@H](CCCNC(=N)N)NC(=O)[C@H](C)NC(=O)[C@H](CC(=O)O)NC(=O)[C@H](CC(C)C)NC(=O)[C@H](Cc1ccc(O)cc1)NC(=O)[C@H](CCCCN)NC(=O)[C@H](CO)NC(=O)[C@H](CC(C)C)NC(=O)[C@H](CC(=O)O)NC(=O)[C@H](CO)NC(=O)[C@@H](NC(=O)[C@H](Cc1ccccc1)NC(=O)[C@@H](NC(=O)CNC(=O)[C@H](CCC(N)=O)NC(=O)C(C)(C)NC(=O)[C@@H](N)Cc1c[nH]cn1)[C@@H](C)O)[C@@H](C)O)C(C)C)C(=O)N[C@@H](CC(N)=O)C(=O)N[C@@H](CCCCNC(=O)CC[C@H](NC(=O)CC[C@H](NC(=O)COCCOCCNC(=O)COCCOCCNC(=O)CC[C@H](NC(=O)CCCCCCCCCCCCCCCCC(=O)O)C(=O)O)C(=O)O)C(=O)O)C(N)=O` [Chem. 20, N^ε29-[(4S)-4-carboxy-4-[[(4S)-4-carboxy-4-[[2-[2-[2-[[2-[2-[2-[[(4S)-4-carboxy-4-(17-carboxyheptadecanoylamino)butanoyl]amino]ethoxy]ethoxy]acetyl]amino]ethoxy]ethoxy]acetyl]amino]butanoyl]amino]butanoyl]-[Aib2,Leu10,Ala16,Arg20,Ile27,Lys29]-Glucagon amide] (H-H[Aib]QGTFTSDLSKYLDARRARDFVQWLINK([γGlu-γGlu-AEEA-AEEA-γGlu-C18 diacid])-NH2; N-terminus assumed), the IC50 is 0.1 nM.

On to `CC[C@H](C)[C@H](NC(=O)[C@H](CC(C)C)NC(=O)[C@H](Cc1c[nH]c2ccccc12)NC(=O)[C@H](CCC(N)=O)NC(=O)[C@@H](NC(=O)[C@H](Cc1ccccc1)NC(=O)[C@H](CCC(=O)O)NC(=O)[C@H](CCCNC(=N)N)NC(=O)[C@H](C)NC(=O)[C@H](CCCNC(=N)N)NC(=O)[C@H](CCCNC(=N)N)NC(=O)[C@H](C)NC(=O)[C@H](CC(=O)O)NC(=O)[C@H](CC(C)C)NC(=O)[C@H](Cc1ccc(O)cc1)NC(=O)[C@H](CCCCN)NC(=O)[C@H](CO)NC(=O)[C@H](CC(C)C)NC(=O)[C@H](CC(=O)O)NC(=O)[C@H](CO)NC(=O)[C@@H](NC(=O)[C@H](Cc1ccccc1)NC(=O)[C@@H](NC(=O)CNC(=O)[C@H](CCC(N)=O)NC(=O)C(C)(C)NC(=O)[C@@H](N)Cc1c[nH]cn1)[C@@H](C)O)[C@@H](C)O)C(C)C)C(=O)N[C@@H](CC(N)=O)C(=O)N[C@@H](CCCCNC(=O)CC[C@H](NC(=O)CC[C@H](NC(=O)COCCOCCNC(=O)COCCOCCNC(=O)CC[C@H](NC(=O)CCCCCCCCCCCCCCCCC(=O)O)C(=O)O)C(=O)O)C(=O)O)C(N)=O` [Chem. 21, N^ε29-[(4S)-4-carboxy-4-[[(4S)-4-carboxy-4-[[2-[2-[2-[[2-[2-[2-[[(4S)-4-carboxy-4-(17-carboxyheptadecanoylamino)butanoyl]amino]ethoxy]ethoxy]acetyl]amino]ethoxy]ethoxy]acetyl]amino]butanoyl]amino]butanoyl]-[Aib2,Leu10,Ala16,Arg20,Glu21,Ile27,Lys29]-Glucagon amide] (H-H[Aib]QGTFTSDLSKYLDARRAREFVQWLINK([γGlu-γGlu-AEEA-AEEA-γGlu-C18 diacid])-NH2; N-terminus assumed), for which the IC50 amounted to 0.1 nM.
